Experimental data as given in ChEMBL document CHEMBL6120938, “Covalent small-molecule inhibitors of SARS-CoV-2 Mpro: Insights into their design, classification, biological activity, and binding interactions” (Eur J Med Chem, 2024).

Test system: not listed separately
Assay: Inhibition of SARS-CoV-2 Main protease using DABCYL-KTSAVLQ-SGFRKM-E(EDANS) as substrate pre-treated for 15 mins and measured for 60 mins by FRET assay
Design: species or system Severe acute respiratory syndrome coronavirus 2
Conditions: not given

Row | SMILES | IC50
1 | O=Cc1ncc(Br)cc1OCc1ccc(Cl)c(Br)c1 | 6000 nM
2 | Cc1ccc(COc2cc(Br)cnc2C=O)cc1[N+](=O)[O-] | 12000 nM
3 | O=Cc1ncc(Br)cc1OCc1ccc(Cl)c([N+](=O)[O-])c1 | 1000 nM
4 | O=Cc1ncc(Br)cc1OCc1ccc2ccccc2c1 | 26000 nM
5 | O=Cc1ncc(Br)cc1OCc1cc(Br)ccc1Cl | 6000 nM

Test system: SARS-CoV-2
Assay: Antiviral activity against SARS-CoV-2 infected in African green monkey Vero E6 cells assessed as reduction in viral replication incubated for 72 hrs by RT-qPCR analysis
Format: functional, organism-based
Conditions: Severe acute respiratory syndrome coronavirus 2, Vero C1008, 72 h

Row | SMILES | EC50
6 | CC[C@H](NC[C@H](CS(=O)(=O)CC1CC1)N[C@@H](c1ccc(F)cc1)C(F)(F)F)C(=O)C(=O)NC1CC1 | 300 nM

Target: T1, Replicase polyprotein 1ab (Severe acute respiratory syndrome coronavirus 2, UniProt P0DTD1)
Assay: Inhibition of SARS-CoV-2 3CL protease by luciferase reporter assay
Conditions: not given

Row | SMILES | IC50
7 | O=C(CCl)Nc1sc(-c2ccccc2)cc1C(=O)NC1CC1 | 2360 nM
8 | C=CC(=O)N(CCC)[C@H](C(=O)NCc1ccc2c(c1)OCO2)c1cccc(O)c1 | 1000 nM
9 | C=CC(=O)O[C@H](CC)C(=O)NCCc1c[nH]c2ccccc12 | 139000 nM
10 | C=CC(=O)O[C@H](C(=O)NCc1cccc(OC)c1OC)c1ccc([N+](=O)[O-])cc1 | 9390 nM

Target: T1, Replicase polyprotein 1ab
Assay: Inhibition of N-terminal 6His-tagged SARS-CoV-2 3CL protease using FAM-SAVLQ as substrate pre-incubated for 15 mins followed by substrate addition and incubated for 30 mins by FRET analysis
Conditions: not given

Row | SMILES | IC50
11 | COc1ccc([C@@H]2C[C@H]2COC(=O)N[C@@H](CC(C)C)C(=O)N[C@@H](C[C@H]2CCNC2=O)[C@@H](O)S(=O)(=O)O)cc1 | 170 nM
12 | CC(C)C[C@H](NC(=O)OC[C@@H]1C[C@H]1c1cccc(Cl)c1)C(=O)N[C@H](C=O)C[C@H]1CCNC1=O | 170 nM
13 | CC(C)C[C@H](NC(=O)OC[C@@H]1C[C@H]1C1CCCCC1)C(=O)N[C@@H](C[C@H]1CCNC1=O)[C@H](O)S(=O)(=O)O | 170 nM
14 | CC(C)C[C@H](NC(=O)OC[C@@H]1C[C@H]1C1CCC(F)(F)CC1)C(=O)N[C@@H](C[C@H]1CCNC1=O)[C@H](O)S(=O)(=O)O | 170 nM
15 | CC(C)C[C@H](NC(=O)OC[C@@H]1C[C@H]1c1ccccc1)C(=O)N[C@H](C=O)C[C@H]1CCNC1=O | 170 nM
16 | CCC[C@@H]1C[C@H]1COC(=O)N[C@@H](CC(C)C)C(=O)N[C@@H](C[C@H]1CCNC1=O)[C@@H](O)S(=O)(=O)O | 170 nM

Test system: not listed separately
Assay: Inhibition of MERS-CoV 3CLpro by FRET assay
Design: species or system Middle East respiratory syndrome-related coronavirus
Conditions: not given

Row | SMILES | IC50
17 | CC(C)C[C@H](NC(=O)OC[C@@H]1C[C@H]1c1cccc(F)c1)C(=O)N[C@H](C=O)CC1CCNC1=O (some centres undefined) | 70 nM
18 | COc1ccccc1[C@@H]1C[C@H]1COC(=O)N[C@@H](CC(C)C)C(=O)N[C@@H](CC1CCNC1=O)C(O)S(=O)(=O)O (some centres undefined) | 70 nM
19 | CC(C)C[C@H](NC(=O)OC[C@@H]1C[C@H]1c1cccc(F)c1)C(=O)N[C@@H](CC1CCNC1=O)C(O)S(=O)(=O)O (some centres undefined) | 70 nM
20 | COc1ccccc1[C@@H]1C[C@H]1COC(=O)N[C@@H](CC(C)C)C(=O)N[C@H](C=O)CC1CCNC1=O (some centres undefined) | 70 nM

Test system: not listed separately
Assay: Inhibition of C-terminal GST-tagged SARS-CoV-2 Main protease extracted from Escherichia coli BL21 (DE3) measured for 60 mins by FRET assay
Design: species or system Severe acute respiratory syndrome coronavirus 2
Conditions: not given

Row | SMILES | IC50
21 | O=c1c2cccc([N+](=O)[O-])c2[se]n1Cc1ccccc1 | 2010 nM
22 | O=c1c2ccccc2[se]n1-c1cccc2cccnc12 | 2600 nM
23 | O=c1c2cccc([N+](=O)[O-])c2[se]n1-c1ccccc1 | 740 nM

Test system: SARS-CoV-2
Assay: Antiviral activity against SARS-CoV-2 infected in African green monkey Vero cells assessed as reduction in viral replication incubated for 72 hrs by RT-qPCR analysis
Format: functional, organism-based
Conditions: Severe acute respiratory syndrome coronavirus 2, Vero

Row | SMILES | EC50
24 | CCC[C@H](NC(=O)[C@@H]1[C@H]2CCC[C@H]2CN1C(=O)[C@@H](NC(=O)[C@@H](NC(=O)c1cnccn1)C1CCCCC1)C(C)(C)C)C(=O)C(=O)NC1CC1 | 1310 nM

Test system: not listed separately
Assay: Inhibition of SARS-CoV-2 MPro using Dabcyl-KTSAVLQSGFRKME-Edans as substrate preincubated for 30 mins followed by substrate addition and measured after 60 mins by fluorescence based assay
Design: species or system Severe acute respiratory syndrome coronavirus 2
Conditions: not given

Row | SMILES | IC50
25 | O=C(NCc1ccccn1)C(=O)[C@@H](Cc1ccccc1)NC(=O)[C@H]1CCC(=O)N1Cc1ccccc1 | 3000 nM

Target: T1, Replicase polyprotein 1ab
Assay: Inhibition of SARS-CoV-2 3CL protease
Conditions: not given

Row | SMILES | IC50
26 | CC(C)C[C@H](NC(=O)OCC1CCC(F)(F)CC1)C(=O)N[C@@H](C[C@@H]1CCNC1=O)C(O)S(=O)(=O)O (some centres undefined) | 100 nM
27 | CCC1(OC(=O)N[C@@H](CC(C)C)C(=O)N[C@H](C=O)C[C@@H]2CCNC2=O)COCOC1 | 450 nM
28 | C=CS(=O)(=O)N(c1ccc(C(C)(C)C)cc1)C(C(=O)NCCc1cccc(OC)c1)c1cccnc1 (centres undefined) | 240 nM
29 | CC(C)C[C@H](NC(=O)OC[C@@H]1C[C@H]1C1CCCCC1)C(=O)N[C@@H](C[C@H]1CCNC1=O)[C@H](O)S(=O)(=O)O | 280 nM
30 | CCC1CCC(OC(=O)N[C@@H](CC(C)C)C(=O)N[C@H](C=O)C[C@@H]2CCNC2=O)CC1 (some centres undefined) | 1100 nM
31 | C=CS(=O)(=O)N(c1ccc(C(C)(C)C)cc1)C(C(=O)NCCc1cccc(Cl)c1)c1cccnc1 (centres undefined) | 0.17 nM
32 | S=C(S)NCc1cccnc1 | 30 nM

Target: T1, Replicase polyprotein 1ab
Assay: Inhibition of SARS-CoV-2 3CL protease using DabcylKTSAVLQSGFRKME-Edans amide as substrate measured for 1 hrs by FRET assay
Conditions: not given

Row | SMILES | IC50
33 | CC(C)C[C@H](NC(=O)OC[C@@H]1C[C@H]1c1cccc(F)c1)C(=O)N[C@H](C=O)CC1CCNC1=O (some centres undefined) | 140 nM
34 | COc1ccccc1[C@@H]1C[C@H]1COC(=O)N[C@@H](CC(C)C)C(=O)N[C@@H](CC1CCNC1=O)C(O)S(=O)(=O)O (some centres undefined) | 140 nM
35 | CC(C)C[C@H](NC(=O)OC[C@@H]1C[C@H]1c1cccc(F)c1)C(=O)N[C@@H](CC1CCNC1=O)C(O)S(=O)(=O)O (some centres undefined) | 140 nM
36 | COc1ccccc1[C@@H]1C[C@H]1COC(=O)N[C@@H](CC(C)C)C(=O)N[C@H](C=O)CC1CCNC1=O (some centres undefined) | 140 nM

Target: not listed separately
Assay: Binding affinity to SARS-CoV-2 Main protease assessed as inhibition constant
Design: species or system Severe acute respiratory syndrome coronavirus 2
Conditions: not given

Row | SMILES | Ki
37 | COc1cc(-c2cccc3[nH]ncc23)cc(C=O)c1OCC(=O)N1CCC(c2cccc(C(=O)N(C)C)c2)C1 (centres undefined) | 45 nM
38 | COc1cc(-c2cccc3[nH]ncc23)cc(C=O)c1OCC(=O)N(C)C | 20 nM

Test system: SARS-CoV-2
Assay: Antiviral activity against SARS-CoV-2 infected in Vero E6 cells assessed as reduction in viral replication
Format: functional, organism-based
Conditions: Severe acute respiratory syndrome coronavirus 2, Vero C1008

Row | SMILES | EC50
39 | COc1cc(-c2cccc3[nH]ncc23)cc(C=O)c1OCC(=O)N(C)C | 5190 nM
